The results in this text go back to ChEMBL document CHEMBL1151677, “Bicinchoninic acid protein assay in the determination of adriamycin cytotoxicity modulated by the MDR glycoprotein” (1996).

Assay [1] concerns MCF/ADR. In words: Reversal of P-gp-mediated multidrug resistance in human MCF/ADR cells assessed as ratio of adriamycin ED50 without drug to adriamycin ED50 with drug at 0.28 uM after 6 days by BCA assay. Format: cell-based.
The nature of assay [2]: Cytotoxicity against human MCF7/ADR cells assessed as ratio of drug concentration to 2 x drug ED50 at 1.07 uM after 6 days by BCA assay. Type of assay: functional, NCI/ADR-RES.
The nature of assay [3]: Cytotoxicity against human MCF7/ADR cells assessed as ratio of drug concentration to 2 x drug ED50 at 0.53 uM after 6 days by BCA assay. Type of assay: functional, NCI/ADR-RES.
Assay [4] has as its system MCF/ADR. In words: Reversal of P-gp-mediated multidrug resistance in human MCF/ADR cells assessed as ratio of adriamycin ED50 without drug to adriamycin ED50 with drug at 1.07 uM after 6 days by BCA assay. Format: cell-based.
Assay [5] concerns MCF/ADR. In words: Reversal of P-gp-mediated multidrug resistance in human MCF/ADR cells assessed as ratio of adriamycin ED50 without drug to adriamycin ED50 with drug at 0.53 uM after 6 days by BCA assay. Format: cell-based.
Assay [6] in a line: Cytotoxicity against human MCF7/ADR cells assessed as ratio of drug concentration to 2 x drug ED50 at 0.28 uM after 6 days by BCA assay. Format: functional, NCI/ADR-RES.
For another assay, the system named is MCF. In words: Reversal of P-gp-mediated multidrug resistance in human MCF cells assessed as enhancement in cytotoxicity of adriamycin. Format: cell-based.
The test system of assay [7] is MCF/ADR. Briefly: Reversal of P-gp-mediated multidrug resistance in human MCF/ADR cells assessed as enhancement in cytotoxicity of adriamycin. Format: cell-based.
A short description of assay [8]: Cytotoxicity against human MCF7/ADR cells after 6 days by BCA assay. Type of assay: functional. The note with it: NCI/ADR-RES, 144 h, read-out: ED50 (the source's name).
Assay [9] in a line: Cytotoxicity against human MCF7/ADR cells after 6 days by coulter counted assay. Format: functional. The conditions noted are these: NCI/ADR-RES, 144 h, read-out: ED50 (the source's name).
Assay [10] deals with MCF7. In words: Cytotoxicity against human MCF7 cells after 6 days by BCA assay. Type of assay: functional. The note with it: MCF7, 144 h, read-out: ED50 (the source's name).
Assay [11] deals with MCF7. In words: Cytotoxicity against human MCF7 cells after 6 days by coulter counted assay. The conditions noted are these: MCF7, 144 h, read-out: ED50 (the source's name). Format: functional.
The nature of assay [12]: Cytotoxicity against human MCF7/ADR cells assessed as ratio of drug concentration to 2 x drug ED50 at 0.82 uM after 6 days by BCA assay. Format: functional, NCI/ADR-RES.
The nature of assay [13]: Cytotoxicity against human MCF7/ADR cells assessed as ratio of drug concentration to 2 x drug ED50 at 3.29 uM after 6 days by BCA assay. Type of assay: functional, NCI/ADR-RES.
A short description of assay [14]: Cytotoxicity against human MCF7/ADR cells assessed as ratio of drug concentration to 2 x drug ED50 at 1.64 uM after 6 days by BCA assay. Type of assay: functional, NCI/ADR-RES.
Assay [15] can be described thus: Cytotoxicity against human MCF7/ADR cells assessed as ratio of drug concentration to 2 x drug ED50 at 0.62 uM after 6 days by BCA assay. Format: functional, NCI/ADR-RES.
A short description of assay [16]: Cytotoxicity against human MCF7/ADR cells assessed as ratio of drug concentration to 2 x drug ED50 at 0.15 uM after 6 days by BCA assay. Format: functional, NCI/ADR-RES.
The nature of assay [17]: Displacement of N-(p-azido-[3-125I]salicyl)-N'-beta-aminoethylvindesine from P-glycoprotein at 12.4 uM.
Assay [18] can be described thus: Cytotoxicity against human MCF7/ADR cells assessed as ratio of drug concentration to 2 x drug ED50 at 2.46 uM after 6 days by BCA assay. Format: functional, NCI/ADR-RES.
Assay [19] in a line: Cytotoxicity against human MCF7/ADR cells assessed as ratio of drug concentration to 2 x drug ED50 at 0.30 uM after 6 days by BCA assay. Type of assay: functional, NCI/ADR-RES.
Assay [20] is described as follows: Cytotoxicity against human MCF7/ADR cells assessed as ratio of drug concentration to 2 x drug ED50 at 1.23 uM after 6 days by BCA assay. Type of assay: functional, NCI/ADR-RES.

In brackets after ≈: the same amount, converted by molar mass. Activity calls are given as the source filed them. No cut-off for these calls is given here.

With `CC[C@H]1CN2CC[C@H]1C[C@H]2[C@@H](Oc1cc(C)c2ccccc2n1)c1ccnc2ccc(OC)cc12`, the Ratio ED50 in the assay with MCF/ADR [1] is 3; in the assay with MCF/ADR [4], 18; in the assay with MCF/ADR [5] it was 6. The Ratio in assay [2] is 0.11; in [3] it was 0.06; in assay [6], 0.03.
On to `C=C[C@H]1C[N+]2(Cc3ccccc3)CC[C@H]1C[C@H]2[C@H](O)c1ccnc2ccc(OC)cc12`, for which the result in the assay on MCF and with MCF/ADR [7] was inactive.
For the compound `COc1ccc(CCN(C)CCCC(C#N)(c2ccc(OC)c(OC)c2)C(C)C)cc1OC` (stereo not drawn), the outcome in the assay on MCF was inactive.
In the case of `COc1cccc2c1C(=O)c1c(O)c3c(c(O)c1C2=O)C[C@@](O)(C(=O)CO)C[C@@H]3O[C@H]1C[C@H](N)[C@H](O)[C@H](C)O1` [DOXORUBICIN], the EC50 in assay [8] is 0.47 µg/mL (≈ 0.865 µM); in assay [9] it was 2.7 µg/mL (≈ 4.97 µM); in the assay with MCF7 [10], 0.0018 µg/mL (≈ 0.00331 µM); with MCF7 [11] it was 0.0021 µg/mL (≈ 0.00386 µM). Further, the result in the assay with MCF was Active.
Take `COC(=O)[C@H]1[C@H]2C[C@H]3c4[nH]c5cc(OC)ccc5c4CCN3C[C@H]2C[C@@H](OC(=O)c2cc(OC)c(OC)c(OC)c2)[C@@H]1OC` [ISORESERPINE]: the results for the Ratio in [12], in assay [13] and in [14] were 0.04, 0.17 and 0.09, respectively.
Turning to `COC(=O)[C@H]1[C@H]2C[C@@H]3c4[nH]c5cc(OC)ccc5c4CCN3C[C@H]2C[C@@H](OC(=O)c2cc(OC)c(OC)c(OC)c2)[C@@H]1OC` [RESERPINE], the Ratio in assay [15] was 0.02; in assay [16], 0.05; in assay [18] it was 0.08; in assay [19] it was 0.009; in assay [20], 0.04. Besides, in [17], the Activity amounted to 79.2%.
